Source: patent publication US10144745B2, “Chimeric compounds targeting proteins, compositions, methods, and uses thereof” (BioTheryX, Inc., priority 2016, dated 2018)

Tests used:
Daudi cells = assay: Daudi Cell Proliferation (WST-1 cell viability); assay type: cell-based; settings: Homo sapiens, 96 h; Daudi cells (Burkitt lymphoma cell line), treated for 4 days, viability by WST-1 relative to vehicle control
Method: Daudi cells, a Burkitt lymphoma cell line, was treated for 4 days with the indicated compound (10 nM, 100 nM, 1 μM, 10 μM, and 100 μM) or vehicle (DMSO), and cell viability was determined using the WST-1 tetrazolium reagent (Roche), and results were expressed as the percentage viability relative to the vehicle control, which was set at 100%. Based on resulting data, an IC50 was calculated for each compound.
IC50 values less than or equal to 2 μM are represented by “A;” IC50 values greater than 2 μM and less than or equal to 30 μM are represented by “B;” and IC50 values greater than 30 μM are represented by “C.”

FGFR (G697C) = biological target: T1, FGFR (G697C) (Homo sapiens, UniProt P22607, G697C); assay: Kinase Inhibition Assay (kinase-tagged phage / affinity bead competition binding, qPCR); settings: Compounds were tested at 500 nM; read-out: FGFR (G697C) (Percent Control)
T1 construct: made in house
T1 sequence (P22607 23-806 G697C): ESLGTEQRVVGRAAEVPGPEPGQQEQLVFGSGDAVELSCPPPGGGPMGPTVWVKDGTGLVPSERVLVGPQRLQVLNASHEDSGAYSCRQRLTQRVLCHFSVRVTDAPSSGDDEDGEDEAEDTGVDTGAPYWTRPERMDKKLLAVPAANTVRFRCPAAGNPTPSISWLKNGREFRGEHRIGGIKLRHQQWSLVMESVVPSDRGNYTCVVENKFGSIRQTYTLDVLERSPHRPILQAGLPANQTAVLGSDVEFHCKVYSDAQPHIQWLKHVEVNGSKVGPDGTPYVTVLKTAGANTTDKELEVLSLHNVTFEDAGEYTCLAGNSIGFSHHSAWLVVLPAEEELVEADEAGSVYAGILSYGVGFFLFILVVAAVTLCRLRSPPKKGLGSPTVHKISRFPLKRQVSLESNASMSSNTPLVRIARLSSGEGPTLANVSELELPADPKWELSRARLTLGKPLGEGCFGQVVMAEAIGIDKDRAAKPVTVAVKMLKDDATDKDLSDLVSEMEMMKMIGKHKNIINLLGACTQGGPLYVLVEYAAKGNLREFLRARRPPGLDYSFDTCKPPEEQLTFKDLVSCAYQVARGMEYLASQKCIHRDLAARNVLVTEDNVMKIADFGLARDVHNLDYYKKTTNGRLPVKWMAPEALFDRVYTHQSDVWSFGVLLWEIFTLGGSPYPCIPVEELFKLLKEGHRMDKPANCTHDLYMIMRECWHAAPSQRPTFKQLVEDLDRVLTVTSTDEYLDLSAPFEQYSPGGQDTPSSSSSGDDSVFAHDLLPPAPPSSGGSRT
Method: (§1) Kinase-tagged T7 phage strains were grown in parallel in 24-well blocks in an E. coli host derived from the BL21 strain. E. coli were grown to log-phase and infected with T7 phage from a frozen stock (multiplicity of infection=0.4) and incubated with shaking at 32° C. until lysis (90-150 minutes). The lysates were centrifuged (6,000×g) and filtered (0.2 μm) to remove cell debris. The remaining kinases were produced in HEK-293 cells and subsequently tagged with DNA for qPCR detection. Streptavidin-coated magnetic beads were treated with biotinylated small molecule ligands for 30 minutes at room temperature to generate affinity resins for kinase assays. The liganded beads were blocked with excess biotin and washed with blocking buffer (SeaBlock (Pierce), 1% BSA, 0.05% Tween 20, 1 mM DTT) to remove unbound ligand and to reduce non-specific phage binding.
Binding reactions were assembled by combining kinases, liganded affinity beads, and test compounds in 1× binding buffer (20% SeaBlock, 0.17×PBS, 0.05 Tween 20, 6 mM DTT). Test compounds were prepared as 40× stocks in 100% DMSO and directly diluted into the assay. All reactions were performed in polypropylene 384-well plates in a final volume of 0.02 mL. The assay plates were incubated at room temperature with shaking for 1 hour and the affinity beads were washed with wash buffer (1×PBS, 0.05% Tween 20). […]

FES = biological target: T2, FES (Homo sapiens, UniProt P07332); assay: as above; settings: Compounds were tested at 500 nM; read-out: FES (Percent Control)
T2 construct: made in house
T2 sequence (P07332 whole entry, species assumed): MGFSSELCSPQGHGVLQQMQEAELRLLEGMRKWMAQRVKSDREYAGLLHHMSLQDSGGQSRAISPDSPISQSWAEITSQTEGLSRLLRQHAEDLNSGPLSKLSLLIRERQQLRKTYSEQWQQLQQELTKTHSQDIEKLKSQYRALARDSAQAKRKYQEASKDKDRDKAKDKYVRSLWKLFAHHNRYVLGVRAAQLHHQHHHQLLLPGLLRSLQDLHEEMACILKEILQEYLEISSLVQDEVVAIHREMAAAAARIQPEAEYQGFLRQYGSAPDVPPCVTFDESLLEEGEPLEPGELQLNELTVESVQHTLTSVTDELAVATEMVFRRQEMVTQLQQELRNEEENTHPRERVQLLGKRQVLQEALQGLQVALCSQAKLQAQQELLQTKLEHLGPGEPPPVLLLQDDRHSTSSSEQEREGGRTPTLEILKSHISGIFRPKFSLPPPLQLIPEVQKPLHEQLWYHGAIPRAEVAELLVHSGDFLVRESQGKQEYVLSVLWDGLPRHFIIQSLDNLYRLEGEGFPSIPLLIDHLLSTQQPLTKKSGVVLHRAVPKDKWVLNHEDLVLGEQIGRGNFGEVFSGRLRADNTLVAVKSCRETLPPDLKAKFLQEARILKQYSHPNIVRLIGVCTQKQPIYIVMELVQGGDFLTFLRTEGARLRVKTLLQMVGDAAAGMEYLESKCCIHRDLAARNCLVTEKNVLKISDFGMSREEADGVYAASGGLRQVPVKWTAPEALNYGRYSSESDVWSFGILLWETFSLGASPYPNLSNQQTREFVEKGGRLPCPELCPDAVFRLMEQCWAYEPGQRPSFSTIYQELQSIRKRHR
Method: as §1, with “Streptavidin-coated magnetic beads were treated with biotinylated small molecule ligands for 30 minutes at room temperature to generate affinity resins for kinase assays.” left out
Test compounds were prepared as 40× stocks in 100% DMSO and directly diluted into the assay. […] The kinase concentration in the eluates was measured by qPCR.

SMILES | IC50 (Daudi cells) | remaining binding at 0.5 µM (FGFR (G697C)) | remaining binding at 0.5 µM (FES)
O=C1CCC[C@H](N2Cc3c(cccc3C(F)F)C2=O)C(=O)N1 [Compound 42, (S)-3-(4-(Difluoromethyl)-1-oxoisoindolin-2-yl)azepane-2,7-dione] | 2 to 30 µM | – | –
C=C(C)c1cccc2c1CN([C@H]1CCCC(=O)NC1=O)C2=O [Compound 43, (S)-3-(1-Oxo-4-(prop-1-en-2-yl)isoindolin-2-yl)azepane-2,7-dione] | ≤ 2 µM | – | –
Cc1cnc(Nc2ccc(OCCN3CCCC3)cc2)nc1Nc1cccc(S(=O)(=O)NC(C)(C)C)c1 [Fedratinib, reference compound] | – | 57% | –
CC(C)c1cccc2c1CN([C@H]1CCCC(=O)NC1=O)C2=O [Compound 45, (S)-3-(4-Isopropyl-1-oxoisoindolin-2-yl)azepane-2,7-dione] | > 30 µM | – | –

The remaining lines, values ahead:

IC50 (Daudi cells) | remaining binding at 0.5 µM (FGFR (G697C)) | remaining binding at 0.5 µM (FES) | SMILES
> 30 µM | – | – | Nc1cccc2c1CN(C1CCC(=O)NC1=O)C2=O (stereo not shown) [Lenalidomide, reference compound]
– | 4.8% | 15% | Cc1cnc(Nc2ccc(OCCCNCC(=O)Nc3cccc4c3CN([C@H]3CCCC(=O)NC3=O)C4=O)cc2)nc1Nc1cccc(S(=O)(=O)NC(C)(C)C)c1 [Compound 66, (S)-2-((3-(4-((4-((3-(N-(tert-Butyl)sulfamoyl)phenyl)amino)-5-methylpyrimidin-2-yl)amino)phenoxy)propyl)amino)-N-(2-(2,7-dioxoazepan-3-yl)-1-oxoisoindolin-4-yl)acetamide]
